The record followed here is patent US11220498B2, “Neuroprotective aminothiazoles” (priority 2018, dated 2022).

One assay deals with BGMK cells. Briefly: cells. The class given is cell-based. To be noted: read-out: % BGMK Cell Viability after treatment with 15 μM TG in Presence of 10 μM compound. The text has this: Ability of compounds to rescue BGMK cells from thapsigargin-induced cell death. To assess an orthogonal cell line and further validate the ability of SUMOylation activators to rescue varied cell types, the compounds were also profiled for cytoprotection in BGMK cells. Again, we used the known ER stress-causing agent thapsigargin (TG) to model the compromised state in vitro. BGMKs were subcultured at 1.2×10^4 cells/ml. Wells treated with compound were done so for 2 hr. […] After treatment, all cells were washed and fed fresh DMEM complete media and CCK-8 development vehicle, incubated for 2 hr, and absorbance was measured to assess viability. Controls were DMSO (0% viability) and Salubrinal (47% viability).

The subject of assay [1] is SUMOylation of His-RanGap. The assay can be described thus: HTRF assay measuring increase in SUMOylation of His-RanGap. Format: biochemical. To be noted: His-RanGap substrate, SUMO-E1 (SAE), SUMO-E2 (UBC9), GST-SUMO; HTRF ratio 665/620; 30 min at room temperature; triplicate. The procedure: Assay measuring increase in SUMOylation of His-RanGap. We utilized an HTRF assay containing SUMO-E1 (SAE), SUMO-E2 (UBC9), GST-SUMO and His-RanGap, a known SUMO substrate, as well as the respective fluorescent antibodies. The assay was run in 1536-well plate format and the selected activators were chosen based on their ability to increase the FRET signal over a baseline level. In 1536-well white plates, 2 μl of phosphate buffered saline (assay buffer) was dispensed into columns 1 and 2, and 2 μl of Mixture 1 (37.5 nM E1 and 100 nM His-RanGap-1) in assay buffer (50 mM Tris-HCl pH 7.4, 0.3 mM DTT, 10 mM MgCl2, 0.005% Tween-20), was dispensed into columns 3-48. Using a pintool, 70 nl of 2 mM compounds in DMSO was dispensed to columns 5-48 and 70 nl of DMSO was dispensed to columns 1-4. Using the Thermo Scientific MultiDrop Combi, 2 μL of Mixture 2 (20 mM ATP, 12.5 nM E2 and 30 nM GST-SUMO in buffer) was dispensed to all wells and incubated for 30 min. at room temperature followed by 1 μl of 500 mM KF. Plates were read on a PheraStar in a HTRF mode (Ex: 337 nm; Em: 620/665 nm). The ratio of fluorescence 665 over 620 was utilized as a readout of the assay. Increase in SUMOylation was calculated by comparison to baseline level. Measurements were done in triplicate.
(In general: In TR-FRET formats the signal depends on donor and acceptor labels being close together.)

The next assay relates to CSM14.1 cells. Briefly: Rescue of CSM14.1 neurons from thapsigargin-induced cell death (ATPlite cell viability). The class given is cell-based. To be noted: Rattus norvegicus, Neuron, 10 μM compound, 2 h preincubation, 15 μM TG for 20 h, read-out: % CSM14.1 Cell Viability after treatment with 15 μM TG in Presence of 10 μM compound. The text has this:
Ability of compounds to rescue CSM14.1 neurons from thapsigargin-induced cell death. To assess the ability of the compounds to rescue neurons from ER stress-induced cell death, the rat striatel neuroprogenitor cell line CSM14.1 was used. Endoplasmic reticulum (ER) stress has been established as the major cause of neuronal loss in stroke, ischemia, and neurodegeneration (Tajiri, S.; Oyadomari, S.; Yano, S.; Morioka, M.; Gotoh, T.; Hamada, J. I.; Ushio, Y.; Mori, M. Cell Death Differ. 2004, 11, 403-415; Kohno, K.; Higuchi, T.; Ohta, S.; Kumon, Y.; Sakaki, S. Neurosci. Lett. 1997, 224, 17-20; ladecola, C.; Zhang, F.; Casey, R.; Nagayama, M.; Ross, M. E. J. Neurosci. 1997, 17, 9157-9164). Thus, we used the known ER stress-causing agent thapsigargin (TG) to model the compromised state in vitro. TG causes 100% cell death in most cases, and compounds were assessed for neuroprotection by measuring cell viability when dosed at 10 μM. CSM14.1 cells were recovered from cultures by trypsinization and plated in 96-well plates and incubated overnight at 32° C. 5 μl of test compound was added to achieve a final concentration of […]. Salubrinal and DMSO without compound were used as positive and negative controls, respectively. After 2 h of preincubation, TG-containing DMEM was added to give a final concentration of 15 μM and incubated for an additional 20 h. Cell viability was assessed by a cellular ATP content assay (ATPlite, PerkinElmer Life Sciences).
(In general: In ATP-based viability assays light output follows the ATP content of the culture.)

With `O=C(Nc1nc(-c2ccccn2)cs1)c1ccc2c(c1)OCCO2` [Compound C3, N-(4-(Pyridin-2-yl)thiazol-2-yl)-2,3-dihydrobenzo[b][1,4]dioxine-6-carboxamide], the viability (commonly a per cent measure of how many cells are alive, often set against a control) at 10 µM with BGMK cells lay in the range of 51 to 60%. The “% INCREASE IN SUMOylation over endogenous baseline level” value (from here on “% INCREASE IN SUMOylation”) in assay [1] is “A (A = 10%-20% increase)”.

On to `CC(=O)Nc1ccc(C(=O)Nc2nc(-c3cccnc3)cs2)cc1` [Compound C2, 4-(Acetylamino)-N-[4-(3-pyridinyl)-2-thiazolyl]-benzamide], for which the “% INCREASE IN SUMOylation” value in assay [1] is “A (A = 10%-20% increase)”.

For the compound `O=C(Nc1nc(-c2ccccn2)cs1)c1ccc(Br)s1` [Compound C6, 5-Bromo-N-(4-(pyridin-2-yl)thiazol-2-yl)thiophene-2-carboxamide], the viability at 10 µM with BGMK cells lay in the range of 61 to 85%; in the assay on CSM14.1 cells, 61 to 70%. For the same compound, the “% INCREASE IN SUMOylation” value in assay [1] is on record as “C (C = 31%-40% increase)”.

In the case of `O=C(Nc1nc(-c2ccccn2)cs1)C1COc2ccccc2O1` (stereo not shown) [Compound C4, N-(4-(Pyridin-2-yl)thiazol-2-yl)-2,3-dihydrobenzo[b][1,4]dioxine-2-carboxamide], the viability at 10 µM was 61 to 85% in the assay with BGMK cells and 61 to 70% in the assay on CSM14.1 cells. Further, in assay [1], the “% INCREASE IN SUMOylation” value is reported as “D (D = 40%-60% increase in SUMOylation over baseline levels)”.

As to `O=C(Nc1nc(-c2ccccn2)cs1)c1ccc(Cl)s1` [Compound C5, 5-Chloro-N-(4-(pyridin-2-yl)thiazol-2-yl)thiophene-2-carboxamide], the viability at 10 µM in the assay with BGMK cells lay within 41 to 50%. In addition, the “% INCREASE IN SUMOylation” value in assay [1] is listed as “B (B = 21%-30% increase)”.

On to `O=C(Nc1nc(-c2ccccn2)cs1)c1ccc(S(=O)(=O)N2CCCCC2)cc1` [Compound C1, 4-(1-Piperidinylsulfonyl)-N-[4-(2-pyridinyl)-2-thiazolyl]-benzamide], for which, in assay [1], the “% INCREASE IN SUMOylation” value is on record as “D (D = 40%-60% increase in SUMOylation over baseline levels)”. Besides, the viability at 10 µM with CSM14.1 cells is 40 to 50%.
